Assay results: US12396996B2, “Compounds, pharmaceutical compositions, and methods of their use in reversing cancer chemoresistance” (priority 2019, dated 2025)

Experiments:
[1] = tested on: 786-0 and HMLE-Snail (E-Snail) cells versus WT7, HMLE, HK-2, NP-1 and BEAS-2B cells; assay: Proliferation assay on normal and cancer cell lines; type: cell-based, human; details: 100 nM chaetocin for 1 day
Excerpt: Mesenchymal, TIC-rich, chemotherapy-resistant cell lines used in this experiment are the clear cell renal carcinoma cell line 786-0 and the human mammary epithelial (HMLE) cell line in which the zinc finger protein SNAI1 (SNAIL) is overexpressed, E-SNAIL. The isogenic epithelial, TIC-depleted, chemotherapy sensitive cell lines used as controls are the clear cell renal carcinoma cell line WT7 (modified 786-0 cells) and the human mammary epithelial (HMLE) cell with […].
To test if other mesenchymal, TIC-rich, chemotherapy resistant cell lines of different tissue origin (e.g. kidney) are also sensitive to chaetocin treatment, normal and cancerous breast (control) and renal cells were treated in culture with 100 nM chaetocin for 1 day, after which cell growth was assayed using a proliferation assay (FIG. 1C). The tested cells included a 786-0 clear cell renal cell carcinoma (ccRCC) cell line, which is defective in the Von Hippel-Lindau tumor suppressor (VHL), enriched in TIC, and difficult to eliminate by conventional chemotherapy in patients carrying this mutation. WT7 cell line is a modified 786-0 cell line in which VHL is re-introduced artificially, rendering them epithelial, TIC-depleted and susceptible to chemotherapy. […]

[2] = tested on: 800 cancer cell lines; assay: Cell viability screen with GSEA of mesenchymal gene signature; type: cell-based; details: 0.005-1.28 μM, viability several days after treatment
Protocol: FIGS. 1D-1E are a series of scatter plots showing the results of a Gene Set Enrichment Analysis (GSEA) screen of 800 cancer cell lines for sensitivity to chaetocin applied at 9 different concentrations (0.005 μM, 0.01 μM, 0.02 μM, 0.04 μM, 0.08 μM, 0.16 μM, 0.32 μM, 0.64 μM, and 1.28 μM) in culture. Cell viability was measured several days after chaetocin treatment. FIG. 1D is a scatter plot showing the chaetocin sensitivity of all tested cells lines: mesenchymal gene expression signature (SNAIL-induced early-repressed gene set) (Y-axis) is plotted against area under the curve (AUC) calculated by measuring percent cell death caused by increasing doses of chaetocin (X-axis). Mesenchymal gene expression signature (SNAIL-induced early-repressed gene set) used in the Y-axis was based on the Javaid et al 2013 paper.
To determine whether sensitivity of cancer cells to chaetocin correlates with mesenchymal cell phenotype, the sensitivity or resistance of 800 cancer cell lines to chaetocin was assayed by the group of Cyril Benes treating each cell line with chaetocin at concentrations of 0.005 μM, 0.01 μM, 0.02 μM, 0.04 μM, 0.08 μM, 0.16 μM, 0.32 μM, 0.64 μM, and 1.28 μM. Cell viability was measured several days following treatment. […]

[3] = tested on: HMLE-TWIST cells; details: 20, 50, 100 nM for 5 or 15 hours, two days chaetocin-free, then doxorubicin;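 for Log2foldChange ALDH1A1: transcript levels measured by RNA-seq of total RNA extracted from treated cells, given as log2 change relative to untreated cells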;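 for Log2foldChange BIRC5 (survivin-1): transcript levels measured by RNA-seq of total RNA extracted from treated cells, given as log2 change relative to untreated cells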
Protocol: Doxorubicin was added after two days and cell death was assayed with cleaved caspase-3 intensity.
To determine if EMT reversal with chaetocin can sensitize TIC-rich breast cancer cells, namely HMLE-TWIST cells, to conventional chemotherapeutic agents, cells were treated for 5 or 15 hours with different concentrations of chaetocin (20 nM, 50 nM, and 100 nM), as is schematized in FIG. 4A. Cells were then washed and incubated in chaetocin-free media for two days. Doxorubicin was then added, and cell death was assayed using FACS analysis of caspase-3 cleavage two days after doxorubicin addition.

[4] = tested on: HMLE-TWIST cells; details: 0.3 μM, 15 hours, versus untreated;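 for Log2foldChange ALDH1A1: transcript levels measured by RNA-seq of total RNA extracted from treated cells, given as log2 change relative to untreated cells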;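 for Log2foldChange BIRC5 (survivin-1): transcript levels measured by RNA-seq of total RNA extracted from treated cells, given as log2 change relative to untreated cells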
Protocol: To determine whether the transcriptional changes associated with chaetocin treatment support this apparent change in cell state (reversal of mesenchymal fate), RNA-seq experiments were performed on cells treated for 15 hours with 0.3 μM of chaetocin after which total RNA was extracted and subjected to deep sequencing.

## CN1C(=O)[C@@]23C[C@]4([C@]56C[C@@]78SS[C@](CO)(C(=O)N7[C@H]5Nc5ccccc56)N(C)C8=O)c5ccccc5N[C@@H]4N2C(=O)[C@@]1(CO)SS3 [chaetocin]
[1]
  inhibition of proliferation: selectively inhibits the growth of mesenchymal, TIC-rich, chemotherapy resistant breast and kidney cancer cell lines
[2]
  sensitivity (AUC of percent cell death) versus mesenchymal gene signature: cells with mesenchymal transcriptional signature are sensitive to chaetocin
[3]
  reversal of resistance to doxorubicin (caspase-3 cleavage): reverses chemotherapy resistance of mesenchymal, TIC-rich HMLE-TWIST cells to doxorubicin
[4]
  Log2foldChange ALDH1A1: −2.01
  Log2foldChange BIRC5 (survivin-1): 0.491
  Log2foldChange CD24: −0.912
  Log2foldChange CDH1 (E-cadherin): 4.25
  Log2foldChange CLDN2: 6.00
  Log2foldChange CLDN4: 3.68
  Log2foldChange CLDN6: 7.30
  Log2foldChange CLDN9: 4.59
  Log2foldChange CLDN16: 2.77
  Log2foldChange CLDN23: 1.18
  Log2foldChange COL2A1: 4.34
  Log2foldChange CRB1: 9.40
  Log2foldChange CST6: 2.12
  Log2foldChange Errb2: −0.829
  Log2foldChange GJA1: −0.627
  Log2foldChange GLI-2: −0.941
  Log2foldChange KRT7: 1.59
  Log2foldChange KRT8: 1.30
  Log2foldChange KRT18: 1.95
  Log2foldChange KRT19: 4.46
  Log2foldChange KRT34: 5.49
  Log2foldChange KRT80: 1.24
  Log2foldChange KRT81: 1.47
  Log2foldChange KRT86: 3.10
  Log2foldChange LAMB1: −1.05
  Log2foldChange MMP14: −1.14
  Log2foldChange NRF-2: −0.862
  Log2foldChange Nanog: −2.21
  Log2foldChange O ct4: −1.76
  Log2foldChange PTEN: −0.780
  Log2foldChange SNAI2: −0.623
  Log2foldChange TWIST1: −0.549
  Log2foldChange WISP1: −1.06
  Log2foldChange ZEB1: −0.666
